Assay results reported in patent US8653110B2, “Active compound combination comprising azadirachtin and a substituted enaminocarbonyl compound” (Bayer CropScience AG, priority 2010, dated 2014).

Columns and labels:
Cyclocephala immaculata = assay: Watering test with beetle larvae (Example 2); assay type: in vivo; settings: for Effect on day 1 in % / Effect on day 4 in % / Effect on day 7 in % / Effect on day 14 in %: L3 larvae, watering, (I-1) 600, azadirachtin 60, (I-1)+azadirachtin 600+60, trichlorfon 4529 g of active compound/ha
From the text: Beetle larvae (grubs) are important lawn pests. On the one hand, they feed on grass roots, damaging them directly, on the other hand they are a favoured food for birds which, searching for grubs, destroy the turf. For treatment against grubs, infested lawns are usually watered with insecticidal compositions. This type of treatment is emulated in the laboratory by Example 2.
To prepare a suitable active compound preparation, a commercial formulation of active compound or active compound combination is mixed with water until the desired concentration is reached. Pots with soil substrate were watered with the following active compound preparations: • 1. untreated • 2. compound (I-1) as SL 200, 600 g of active compound/ha • 3. azadirachtin, 60 g of active compound/ha • 4. compound (I-1) as SL 200+azadirachtin, 600+60 g of active compound/ha • 5. positive control: trichlorfon 4529 g of active compound/ha
L3 larvae of Cyclocephala immaculata were placed onto the pots. After 1, 4, 7, 14 days, the survival rate was determined, and this was used to calculate the efficacy of the compositions. 100% means that all grubs were killed, 0% means no activity.

Spodoptera exigua = Spodoptera exigua caterpillars on carnations, feeding damage (Example 1); assay type: in vivo; settings: for Day 7 reduction of feeding damage in %: Day 7, (I-1) 150, azadirachtin 30, (I-1)+azadirachtin 150+30, imidacloprid 100 g of active compound/ha; for Day 32 reduction of feeding damage in %: Day 32, (I-1) 150, azadirachtin 30, (I-1)+azadirachtin 150+30, imidacloprid 100 g of active compound/ha; for Day 40 reduction of feeding damage in %: Day 40, (I-1) 150, azadirachtin 30, (I-1)+azadirachtin 150+30, imidacloprid 100 g of active compound/ha
Description: Example 1 describes the effect of the combination according to the invention on caterpillars of the owlet moth (Spodoptera exigua) on carnations (Dianthus caryophyllus). Azadirachtin was employed as NeemAzal® from Trifolio GmbH. The test was carried out according to EPPO guidelines PP 1/152 (2), PP 1/181 (3), PP 1/135 (3) and PP 1/210 (1) with 4 repetitions of in each case 10 plants. At the start of the infection, the plants were treated as follows: • 1. untreated • 2. compound (I-1) as SL 200 (17% strength), 150 g of active compound/ha • 3. azadirachtin 30 g of active compound/ha • 4. compound (I-1) as SL 200+azadirachtin, 150+30 g of active compound/ha • 5. positive control: imidacloprid 100 g of active compound/ha
The spray solution was prepared by mixing commercial formulations and using water to adjust to the concentration mentioned. The application rate was 1000 l/ha. 3 Applications were carried out at intervals of 10-14 days. The feeding damage caused by the caterpillars on the carnation leaves was scored at weekly intervals.

Plutella xylostella = assay: Diamondback moth bioassay on Savoy cabbage leaf discs (Example 9); assay type: in vivo
Description: Example 9 also describes the effect of the combination according to the invention on caterpillars of diamondback moth Plutella xylostella on Savoy cabbage. The plants were grown in a greenhouse, and five plants each were treated as follows: The spray solution was prepared by mixing commercial formulations and using water to adjust to the concentration mentioned. The application rate was 1000 l/ha. • 1. untreated • 2. compound (I-1) as SL 200 (compound according to formula (I-1), 17% strength), 50 g of active compound/ha • 3. azadirachtin 30 g of active compound/ha, NeemAzal® • 4. azadirachtin 15 g of active compound/ha, NeemAzal® • 5. azadirachtin 5 g of active compound/ha, NeemAzal® • 6. compound (I-1) as SL 200+azadirachtin, 50+30 g of active compound/ha • 7. compound (I-1) as SL 200+azadirachtin, 50+15 g of active compound/ha • 8. compound (I-1) as SL 200+azadirachtin, 50+5 g of active compound/ha • 9. positive control imidacloprid 100 g of active compound/ha
The plants were incubated under greenhouse conditions (20° C., 70% relative atmospheric humidity), the plants being placed at random. After 3 days, the first leaf samples were taken. Here, 5 leaves were picked from each plant. 10 leaf discs of a diameter of 6 cm were punched from the leaves and placed in Petri dishes covered with moistened filter paper. Once the leaf discs had been placed into the Petri dishes, 5 Plutella xylostella larvae of the L2 instar were added. The Petri dishes were placed on a tablett, covered with a dark film and kept at 20° C. in the laboratory. Evaluation was carried out on days 9, 14 and 21 after the addition of the larvae, the number of surviving animals being scored.
What is shown is the effect of the products, which becomes evident in a reduction of the number of diamondback moths compared to the untreated control.

Phyllotreta nigripes = assay: Turnip flea beetle on cabbage (Example 10); assay type: in vivo; settings: (I-1) 150, azadirachtin 30, (I-1)+azadirachtin 150+30, imidacloprid 100 g/ha
Description: Example 10 describes the effect of the combination according to the invention on caterpillars of the turnip flea beetle Phyllotreta nigripes on cabbage. The test was carried out according to EPPO guidelines PP 1/210(1), PP 1/152 (2), PP 1/181 (3) and PP 1/135 with 4 repetitions of in each case 10 plants. The plants were treated as follows: • 1. untreated • 2. compound (I-1) as SL 200 (compound according to formula (I-1), 17% strength), 150 g of active compound/ha • 3. azadirachtin 30 g of active compound/ha, NeemAzal® • 4. compound (I-1) as SL 200+azadirachtin, 150+30 g of active compound/ha • 5. positive control imidacloprid 100 g of active compound/ha
The spray solution was prepared by mixing commercial formulations and using water to adjust to the concentration mentioned. The application rate was 1000 l/ha. 2 applications were carried out at intervals of 14 days. The number of live caterpillars on days 7 to 32 after the first application was scored. What is shown is the effect of the products, which becomes evident in a reduction of the number of caterpillars compared to the untreated control.

Diabrotica balteata = Diabrotica balteata test, larvae in soil (Example 4); assay type: in vivo; settings: soil treatment, maize, (I-1) 60 g of ai/ha, Azadirachta indica 20%, combination 60 g + 20%
Description: • Solvent: 4 parts by weight of acetone • Emulsifier: 1 part by weight of alkylaryl polyglycol ether
The active compound preparation was mixed with soil. […] The treated soil is filled into pots, and 5 maize corns are placed into each pot. 3 days after sowing, larvae of the corn rootworm (Diabrotica balteata) are placed into the treated soil.
The efficacy is calculated from the number of maize plants that have emerged.

Phaedon cochleariae = Phaedon cochleariae larvae test (Example 3); settings: cabbage leaves sprayed, (I-1) 120 g of ai/ha, Azadirachta indica 20%, combination 120 g + 20%
[1] = Day 9, (I-1) 50, azadirachtin 30, (I-1)+azadirachtin 50+30, imidacloprid 100 g/ha
[2] = Day 14, (I-1) 50, azadirachtin 30, (I-1)+azadirachtin 50+30, imidacloprid 100 g/ha
[3] = Day 21, (I-1) 50, azadirachtin 30, (I-1)+azadirachtin 50+30, imidacloprid 100 g/ha

Structure (SMILES) | Effect on day 1 in % (Cyclocephala immaculata) | Effect on day 4 in % (Cyclocephala immaculata) | Effect on day 7 in % (Cyclocephala immaculata) | Effect on day 14 in % (Cyclocephala immaculata) | Day 7 reduction of feeding damage in % (Spodoptera exigua) | Day 32 reduction of feeding damage in % (Spodoptera exigua) | Day 40 reduction of feeding damage in % (Spodoptera exigua) | Activity against Plutella xylostella [%] (Plutella xylostella; [1]) | Activity against Plutella xylostella [%] (Plutella xylostella; [2]) | Activity against Plutella xylostella [%] (Plutella xylostella; [3]) | Activity against Phyllotreta nigripes [%] (Phyllotreta nigripes; Day 7) | Activity against Phyllotreta nigripes [%] (Phyllotreta nigripes; Days 14-16) | Activity against Phyllotreta nigripes [%] (Phyllotreta nigripes; Days 21-25) | Activity against Phyllotreta nigripes [%] (Phyllotreta nigripes; Days 28-32) | also measured
C/C=C(\C)C(=O)O[C@H]1C[C@@H](OC(C)=O)[C@@]2(C(=O)OC)CO[C@H]3[C@@H](O)[C@@](C)([C@]45O[C@@]4(C)[C@H]4C[C@@H]5O[C@@H]5OC=C[C@@]54O)[C@H]4[C@]1(CO[C@]4(O)C(=O)OC)[C@@H]32 [azadirachtin] | 0% | 0% | 0% | 7% | 0% | 92% | 100% | 46% | 72% | 25% | 29% | 51% | 35% | 34% | effect on grubs (Cyclocephala immaculata; entire duration of the test, azadirachtin 60 g of active compound/ha): no effect; Activity against Plutella xylostella [%] (Plutella xylostella; Day 9, azadirachtin 5, (I-1)+azadirachtin 50+5 g/ha): 0%; Activity against Plutella xylostella [%] (Plutella xylostella; Day 9, azadirachtin 15, (I-1)+azadirachtin 50+15 g/ha): 18%; Activity against Plutella xylostella [%] (Plutella xylostella; Day 14, azadirachtin 5, (I-1)+azadirachtin 50+5 g/ha): 15%; Activity against Plutella xylostella [%] (Plutella xylostella; Day 14, azadirachtin 15, (I-1)+azadirachtin 50+15 g/ha): 31%; Activity against Plutella xylostella [%] (Plutella xylostella; Day 21, azadirachtin 5, (I-1)+azadirachtin 50+5 g/ha): 25%; Activity against Plutella xylostella [%] (Plutella xylostella; Day 21, azadirachtin 15, (I-1)+azadirachtin 50+15 g/ha): 38%
O=C1C=C(N(Cc2ccc(Cl)nc2)CC(F)F)CO1 [(I-1), 4-{[(6-chloropyrid-3-yl)methyl](2,2-difluoroethyl)amino}furan-2(5H)-one] | 0% | 28% | 0% | 29% | 0% | 49% | 88% | 0% | 21% | 34% | 0% | 9.5% | 7.4% | 2.8% | Kill in % after 5d (found) (Diabrotica balteata): 75%; Kill in % after 1d (found) (Phaedon cochleariae): 15%
O=[N+]([O-])NC1=NCCN1Cc1ccc(Cl)nc1 [imidacloprid] |  |  |  |  | 0% | 97% | 100% | 43% | 36% | 41% | 52% | 51% | 49% | 43% | Day 25 reduction of feeding damage in % (Spodoptera exigua; Day 25, (I-1) 150, azadirachtin 30, (I-1)+azadirachtin 150+30, imidacloprid 100 g of active compound/ha): 100%
